Laboratory results as given in the supplement of paper PMC10307832.

Experiments:
Assay in all cases: relative viability (nuclei count vs DMSO), 5 days (fraction); higher = more cells survive
GW-2580 + Luminespib = compound: COC1=CC=C(C=C1)COC2=C(C=C(C=C2)CC3=CN=C(N=C3N)N)OC [GW-2580] + CCNC(=O)c1noc(-c2cc(C(C)C)c(O)cc2O)c1-c1ccc(CN2CCOCC2)cc1 [Luminespib] (partner 0.01 µM)
Method in brief: (§1)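 Values are medians from duplicate plates. Each reflects relative viability, defined as the nuclei count of treated wells over that of vehicle wells. Lung cancer cell lines in 1536-well plates were pin-tool dosed one day after seeding with one drug alone or with a fixed anchor-drug dose plus five library-drug doses (not always all listed) in √10 steps, then fixed, stained and imaged at 4× after 5 days.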

GW-2580 + Lapatinib = compound: COC1=CC=C(C=C1)COC2=C(C=C(C=C2)CC3=CN=C(N=C3N)N)OC [GW-2580] + CS(=O)(=O)CCNCc1ccc(-c2ccc3ncnc(Nc4ccc(OCc5cccc(F)c5)c(Cl)c4)c3c2)o1 [Lapatinib] (partner 2 µM)
Method in brief: as §1

Fedratinib + OSI-027 = compound: Cc1cnc(Nc2ccc(OCCN3CCCC3)cc2)nc1Nc1cccc(S(=O)(=O)NC(C)(C)C)c1 [Fedratinib] + COc1cccc2cc(-c3nc([C@H]4CC[C@H](C(=O)O)CC4)n4ncnc(N)c34)[nH]c12 [OSI-027] (partner 0.5 µM)
Method in brief: as §1

Fedratinib + Tozasertib = compound: Cc1cnc(Nc2ccc(OCCN3CCCC3)cc2)nc1Nc1cccc(S(=O)(=O)NC(C)(C)C)c1 [Fedratinib] + Cc1cc(Nc2cc(N3CCN(C)CC3)nc(Sc3ccc(NC(=O)C4CC4)cc3)n2)n[nH]1 [Tozasertib] (partner 0.1 µM)
Method in brief: as §1

Fedratinib + Alpelisib = compound: Cc1cnc(Nc2ccc(OCCN3CCCC3)cc2)nc1Nc1cccc(S(=O)(=O)NC(C)(C)C)c1 [Fedratinib] + Cc1nc(NC(=O)N2CCC[C@H]2C(N)=O)sc1-c1ccnc(C(C)(C)C(F)(F)F)c1 [Alpelisib] (partner 2 µM)
Method in brief: as §1

Fedratinib + Olaparib = compound: Cc1cnc(Nc2ccc(OCCN3CCCC3)cc2)nc1Nc1cccc(S(=O)(=O)NC(C)(C)C)c1 [Fedratinib] + O=C(c1cc(Cc2n[nH]c(=O)c3ccccc23)ccc1F)N1CCN(C(=O)C2CC2)CC1 [Olaparib] (partner 8 µM)
Method in brief: as §1

Cell Line	relative viability (GW-2580 + Luminespib; first compound 0.08 µM)	relative viability (GW-2580 + Luminespib; first compound 0.8 µM)	relative viability (GW-2580 + Luminespib; first compound 2.53 µM)	relative viability (GW-2580 + Luminespib; first compound 8 µM)	relative viability (GW-2580 + Lapatinib; first compound 0.08 µM)	relative viability (GW-2580 + Lapatinib; first compound 0.8 µM)	relative viability (GW-2580 + Lapatinib; first compound 2.53 µM)	relative viability (GW-2580 + Lapatinib; first compound 8 µM)	relative viability (Fedratinib + OSI-027; first compound 0.1 µM)	relative viability (Fedratinib + OSI-027; first compound 0.3162 µM)	relative viability (Fedratinib + OSI-027; first compound 1 µM)	relative viability (Fedratinib + Tozasertib; first compound 0.1 µM)	relative viability (Fedratinib + Tozasertib; first compound 0.3162 µM)	relative viability (Fedratinib + Tozasertib; first compound 1 µM)	relative viability (Fedratinib + Alpelisib; first compound 0.1 µM)	relative viability (Fedratinib + Alpelisib; first compound 0.3162 µM)	relative viability (Fedratinib + Alpelisib; first compound 1 µM)	relative viability (Fedratinib + Olaparib; first compound 0.1 µM)	relative viability (Fedratinib + Olaparib; first compound 0.3162 µM)	relative viability (Fedratinib + Olaparib; first compound 1 µM)
201T	1.04	1.04	1.08	0.988	1.09	1.11	0.983	1.06	0.698	0.613	0.588	0.609	0.904	0.874	1.04	0.974	0.99	0.846	0.867	0.794
A549					1.11	1.04	0.89	0.869							0.74	0.691	0.622	0.391	0.269	0.354
A-427	1.1	0.83	0.927	0.798	1.17	1.15	0.98	1.07	0.444	0.498	0.118	0.183	0.194	0.16	1.07	0.949	0.959	0.648	0.708	0.716
ABC-1	0.637	0.505	0.391	0.518	1.42	1.03		1.18	0.607	0.467	0.448	0.179	0.146	0.138	0.979	0.994	1.12	0.657	0.984	0.822
BEN	0.353	0.332	0.29	0.264	0.642	0.795	0.481	0.709	0.267	0.297	0.27	0.507	0.464	0.45	0.83	0.972	0.891	1.07	1.01	0.972
CAL-12T	0.335	0.439	0.347	0.575	0.601	0.662	0.545	0.735	0.566	0.694	0.474	0.285	0.304	0.322	1.13	1.16	1.06	0.654	0.737	0.764
COR-L23	0.875	0.774	0.828	0.808	1.26	1.22	1.06	1.06	0.741	0.714	0.596	0.103	0.186	0.168	0.752	0.74	0.778	0.326	0.381	0.302
COR-L 105	0.63	0.588	0.681	0.647	0.429	0.393	0.336	0.351	0.633	0.649	0.497	0.362	0.361	0.338	1.04	1.06	0.793	0.669	0.693	0.708
